Laboratory results: ChEMBL document CHEMBL5291721, “A preclinical secondary pharmacology resource illuminates target-adverse drug reaction associations of marketed drugs” (Nat Commun, 2023)

Experiments:
[1] = biological target: T1, Estrogen receptor (Homo sapiens, UniProt P03372)
T1 sequence (P03372 whole entry): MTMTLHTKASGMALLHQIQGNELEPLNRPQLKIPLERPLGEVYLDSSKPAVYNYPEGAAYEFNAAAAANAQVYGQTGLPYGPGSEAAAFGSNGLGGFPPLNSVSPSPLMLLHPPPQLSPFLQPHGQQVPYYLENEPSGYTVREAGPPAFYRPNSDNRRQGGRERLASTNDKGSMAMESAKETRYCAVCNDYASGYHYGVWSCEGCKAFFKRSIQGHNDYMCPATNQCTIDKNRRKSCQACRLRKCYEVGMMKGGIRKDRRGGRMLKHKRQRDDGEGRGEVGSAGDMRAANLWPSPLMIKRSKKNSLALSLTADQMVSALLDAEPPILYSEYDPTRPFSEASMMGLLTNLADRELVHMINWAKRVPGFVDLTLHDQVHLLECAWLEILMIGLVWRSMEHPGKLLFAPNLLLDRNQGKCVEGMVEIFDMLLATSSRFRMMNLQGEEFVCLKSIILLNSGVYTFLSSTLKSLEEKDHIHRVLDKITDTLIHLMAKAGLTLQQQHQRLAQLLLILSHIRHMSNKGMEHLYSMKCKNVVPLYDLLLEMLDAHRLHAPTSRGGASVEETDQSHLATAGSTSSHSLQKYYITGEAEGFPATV

[2] = biological target: 3',5'-cyclic-AMP phosphodiesterase 4A (Homo sapiens, UniProt P27815); format: functional
Chain of 3',5'-cyclic-AMP phosphodiesterase 4A (P27815 whole entry): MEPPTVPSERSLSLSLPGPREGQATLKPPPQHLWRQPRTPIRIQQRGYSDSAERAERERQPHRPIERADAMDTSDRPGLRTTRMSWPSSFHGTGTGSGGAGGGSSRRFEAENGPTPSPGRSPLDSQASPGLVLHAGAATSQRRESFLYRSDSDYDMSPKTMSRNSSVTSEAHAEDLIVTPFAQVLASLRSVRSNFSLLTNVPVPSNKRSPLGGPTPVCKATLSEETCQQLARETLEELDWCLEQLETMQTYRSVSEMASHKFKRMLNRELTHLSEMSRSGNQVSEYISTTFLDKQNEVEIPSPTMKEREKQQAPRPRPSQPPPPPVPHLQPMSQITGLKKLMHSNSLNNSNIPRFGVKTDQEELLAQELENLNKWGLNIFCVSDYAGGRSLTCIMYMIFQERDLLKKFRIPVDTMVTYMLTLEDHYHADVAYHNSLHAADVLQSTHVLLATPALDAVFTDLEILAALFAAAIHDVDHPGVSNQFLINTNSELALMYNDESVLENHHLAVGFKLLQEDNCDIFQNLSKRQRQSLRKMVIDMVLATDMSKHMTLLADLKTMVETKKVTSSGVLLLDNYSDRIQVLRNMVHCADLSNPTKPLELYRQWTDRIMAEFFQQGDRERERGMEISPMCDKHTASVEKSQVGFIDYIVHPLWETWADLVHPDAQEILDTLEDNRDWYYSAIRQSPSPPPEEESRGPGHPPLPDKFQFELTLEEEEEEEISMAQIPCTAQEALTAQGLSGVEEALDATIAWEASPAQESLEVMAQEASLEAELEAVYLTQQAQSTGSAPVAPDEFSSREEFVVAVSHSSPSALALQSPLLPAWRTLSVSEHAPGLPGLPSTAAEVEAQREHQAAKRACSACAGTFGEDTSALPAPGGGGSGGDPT

[3] = biological target: T2, Progesterone receptor (Homo sapiens, UniProt P06401)
T2 sequence (P06401 whole entry): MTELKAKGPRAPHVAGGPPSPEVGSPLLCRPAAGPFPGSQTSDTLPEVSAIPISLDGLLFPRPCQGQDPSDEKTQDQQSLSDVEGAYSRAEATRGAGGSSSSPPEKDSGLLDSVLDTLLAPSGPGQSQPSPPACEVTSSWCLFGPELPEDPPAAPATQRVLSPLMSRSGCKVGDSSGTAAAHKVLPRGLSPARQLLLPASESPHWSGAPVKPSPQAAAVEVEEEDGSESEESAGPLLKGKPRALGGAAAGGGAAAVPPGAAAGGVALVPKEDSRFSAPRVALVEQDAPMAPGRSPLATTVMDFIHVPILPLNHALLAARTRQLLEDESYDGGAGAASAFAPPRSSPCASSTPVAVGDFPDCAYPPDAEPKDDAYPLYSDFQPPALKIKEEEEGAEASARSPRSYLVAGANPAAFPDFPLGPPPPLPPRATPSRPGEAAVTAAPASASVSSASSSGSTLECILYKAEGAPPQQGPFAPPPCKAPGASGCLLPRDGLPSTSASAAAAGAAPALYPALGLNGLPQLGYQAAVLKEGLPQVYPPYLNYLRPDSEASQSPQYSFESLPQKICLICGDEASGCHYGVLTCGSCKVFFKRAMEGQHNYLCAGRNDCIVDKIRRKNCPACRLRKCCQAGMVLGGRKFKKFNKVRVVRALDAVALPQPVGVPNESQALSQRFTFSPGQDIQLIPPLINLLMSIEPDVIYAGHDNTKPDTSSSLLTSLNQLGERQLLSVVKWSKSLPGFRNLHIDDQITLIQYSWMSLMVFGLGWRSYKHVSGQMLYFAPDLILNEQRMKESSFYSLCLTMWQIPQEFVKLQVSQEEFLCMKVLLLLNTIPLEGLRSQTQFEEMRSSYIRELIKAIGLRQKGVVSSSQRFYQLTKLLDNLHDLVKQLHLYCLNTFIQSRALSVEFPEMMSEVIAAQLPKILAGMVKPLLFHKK

[4] = biological target: D(3) dopamine receptor (Homo sapiens, UniProt P35462)
Chain of D(3) dopamine receptor (P35462 whole entry): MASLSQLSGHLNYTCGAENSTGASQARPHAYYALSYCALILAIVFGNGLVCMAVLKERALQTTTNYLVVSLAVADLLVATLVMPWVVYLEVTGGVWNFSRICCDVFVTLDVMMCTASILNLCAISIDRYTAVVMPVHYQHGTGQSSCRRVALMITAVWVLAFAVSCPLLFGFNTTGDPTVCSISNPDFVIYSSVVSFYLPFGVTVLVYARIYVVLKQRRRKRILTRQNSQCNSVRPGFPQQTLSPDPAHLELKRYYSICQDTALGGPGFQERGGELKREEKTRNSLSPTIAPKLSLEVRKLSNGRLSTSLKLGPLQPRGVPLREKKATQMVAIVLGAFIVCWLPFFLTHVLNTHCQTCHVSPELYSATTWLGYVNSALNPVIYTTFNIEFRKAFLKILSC

[5] = biological target: T3, Thromboxane A2 receptor (Homo sapiens, UniProt P21731); format: functional, cell-based
T3 sequence (P21731 whole entry): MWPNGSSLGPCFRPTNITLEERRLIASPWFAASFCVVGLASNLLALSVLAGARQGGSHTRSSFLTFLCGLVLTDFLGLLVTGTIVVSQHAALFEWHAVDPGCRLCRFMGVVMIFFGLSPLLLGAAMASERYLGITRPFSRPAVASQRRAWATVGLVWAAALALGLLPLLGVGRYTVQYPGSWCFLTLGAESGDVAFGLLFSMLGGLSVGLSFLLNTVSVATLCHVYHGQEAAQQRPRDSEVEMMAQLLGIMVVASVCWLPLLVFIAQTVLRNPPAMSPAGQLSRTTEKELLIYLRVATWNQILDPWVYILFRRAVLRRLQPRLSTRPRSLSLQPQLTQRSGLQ

[6] = biological target: Glutamate receptor ionotropic, NMDA 1 (Rattus norvegicus, UniProt P35439)
[7] = biological target: T4, Muscarinic acetylcholine receptor M2 (Homo sapiens, UniProt P08172); format: functional, cell-based
T4 sequence (P08172 whole entry): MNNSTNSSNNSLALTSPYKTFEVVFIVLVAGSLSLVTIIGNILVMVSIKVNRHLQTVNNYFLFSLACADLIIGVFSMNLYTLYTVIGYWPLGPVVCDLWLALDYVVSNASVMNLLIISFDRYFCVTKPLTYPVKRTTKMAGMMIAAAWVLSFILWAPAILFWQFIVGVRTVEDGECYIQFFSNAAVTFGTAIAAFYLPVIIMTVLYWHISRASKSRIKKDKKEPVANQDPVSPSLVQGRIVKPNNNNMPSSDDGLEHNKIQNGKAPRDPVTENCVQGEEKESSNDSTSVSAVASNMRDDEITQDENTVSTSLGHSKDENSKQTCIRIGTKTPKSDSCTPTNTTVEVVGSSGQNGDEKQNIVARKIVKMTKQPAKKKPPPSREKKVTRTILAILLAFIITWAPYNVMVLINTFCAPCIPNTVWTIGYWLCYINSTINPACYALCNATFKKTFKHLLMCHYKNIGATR

[8] = biological target: Muscarinic acetylcholine receptor M3 (Homo sapiens, UniProt P20309)
Chain of Muscarinic acetylcholine receptor M3 (P20309 whole entry): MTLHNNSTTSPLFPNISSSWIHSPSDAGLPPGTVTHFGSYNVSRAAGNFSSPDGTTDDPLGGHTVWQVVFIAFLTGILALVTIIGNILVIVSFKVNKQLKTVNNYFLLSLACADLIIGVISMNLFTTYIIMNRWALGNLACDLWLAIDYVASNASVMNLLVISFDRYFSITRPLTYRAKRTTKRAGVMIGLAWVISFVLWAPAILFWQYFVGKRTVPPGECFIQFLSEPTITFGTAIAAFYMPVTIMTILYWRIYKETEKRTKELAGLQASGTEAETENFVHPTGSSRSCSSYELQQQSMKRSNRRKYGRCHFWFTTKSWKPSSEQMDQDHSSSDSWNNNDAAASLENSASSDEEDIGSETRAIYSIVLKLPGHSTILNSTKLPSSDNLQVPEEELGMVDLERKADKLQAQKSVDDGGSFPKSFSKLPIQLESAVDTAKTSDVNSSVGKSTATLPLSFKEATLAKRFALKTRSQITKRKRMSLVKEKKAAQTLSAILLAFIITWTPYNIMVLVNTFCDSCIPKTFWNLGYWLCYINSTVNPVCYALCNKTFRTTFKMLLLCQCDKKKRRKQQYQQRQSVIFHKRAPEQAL

[9] = biological target: Histamine H1 receptor (Homo sapiens, UniProt P35367)
Chain of Histamine H1 receptor (P35367 whole entry): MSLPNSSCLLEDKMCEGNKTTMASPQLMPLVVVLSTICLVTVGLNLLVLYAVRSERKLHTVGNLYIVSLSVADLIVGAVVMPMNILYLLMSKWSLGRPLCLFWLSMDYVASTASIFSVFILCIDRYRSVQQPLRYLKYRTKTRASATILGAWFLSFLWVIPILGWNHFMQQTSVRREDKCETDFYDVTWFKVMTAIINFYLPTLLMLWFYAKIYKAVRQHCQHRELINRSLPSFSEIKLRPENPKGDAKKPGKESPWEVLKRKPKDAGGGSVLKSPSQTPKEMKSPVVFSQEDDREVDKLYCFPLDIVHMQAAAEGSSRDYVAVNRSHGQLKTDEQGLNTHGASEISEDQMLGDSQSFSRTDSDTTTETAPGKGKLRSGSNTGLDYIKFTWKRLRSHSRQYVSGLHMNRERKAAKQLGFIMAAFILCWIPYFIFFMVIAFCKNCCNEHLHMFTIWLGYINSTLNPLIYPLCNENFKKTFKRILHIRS
Note: assay procedure not described here.

AC50 [6] | AC50 [7] | AC50 [8] | AC50 [9] | SMILES | AC50 [1] | AC50 [2] | AC50 [3] | AC50 [4] | AC50 [5]
– | – | – | – | O=C1c2c(O)c(=O)ccn2N([C@@H]2c3ccccc3SCc3c2ccc(F)c3F)[C@@H]2COCCN12 [BALOXAVIR] | > 30 µM | > 30 µM | > 30 µM | > 30 µM | > 30 µM
– | – | – | – | C(=N\NC1=NCCN1)/c1c2ccccc2c(/C=N/NC2=NCCN2)c2ccccc12 [BISANTRENE] | > 30 µM | > 30 µM | > 30 µM | 5.96 µM | > 30 µM
– | – | – | – | CCO/N=C(\C(=O)N[C@@H]1C(=O)N2C(C(=O)[O-])=C(Sc3nc(-c4cc[n+](C)cc4)cs3)CS[C@H]12)c1nsc(N)n1 [CEFTAROLINE] | > 30 µM | > 30 µM | > 30 µM | > 30 µM | > 30 µM
– | – | – | – | C[N+](C)(C)CCCCCCCCCC[N+](C)(C)C [DECAMETHONIUM] | > 30 µM | > 30 µM | – | > 30 µM | > 30 µM
– | – | – | – | CCC(=O)O[C@H]1[C@H](O[C@@H]2[C@@H](C)[C@H](O[C@H]3C[C@@](C)(OC)[C@@H](O)[C@H](C)O3)[C@@H](C)C(=O)O[C@H](CC)[C@@](C)(O)[C@H](O)[C@@H](C)C(=O)[C@H](C)C[C@@]2(C)O)O[C@H](C)C[C@@H]1N(C)C [ERYTHROMYCIN PROPIONATE] | > 30 µM | > 30 µM | 10.4 µM | 12.9 µM | > 30 µM
– | – | – | – | CCOC(=O)c1ccc(O)cc1 [ETHYLPARABEN] | > 30 µM | > 30 µM | > 30 µM | > 30 µM | > 30 µM
– | – | – | – | O=C1[C@H](CC[C@H](O)c2ccc(F)cc2)[C@@H](c2ccc(O)cc2)N1c1ccc(F)cc1 [EZETIMIBE] | > 30 µM | > 30 µM | 24.6 µM | > 30 µM | > 30 µM
– | – | – | – | O=C(COc1ccc(Cl)cc1)N1CCN(Cc2ccc3c(c2)OCO3)CC1 [FIPEXIDE] | > 30 µM | > 30 µM | > 30 µM | 27.1 µM | > 30 µM
– | – | – | – | Cc1c(-c2ccccc2)oc2c(C(=O)OCCN3CCCCC3)cccc2c1=O [FLAVOXATE] | > 30 µM | 6.12 µM | > 30 µM | 0.88 µM | > 30 µM
– | – | – | – | CCC(=O)c1c(O)cc(O)cc1O [FLOPROPIONE] | > 30 µM | > 30 µM | > 30 µM | 12.1 µM | > 30 µM
– | – | – | – | CC1(C)O[C@@H]2C[C@H]3[C@@H]4C[C@H](F)C5=CC(=O)CC[C@]5(C)[C@H]4[C@@H](O)C[C@]3(C)[C@]2(C(=O)CO)O1 [FLURANDRENOLIDE] | > 30 µM | > 30 µM | 0.0666 µM | > 30 µM | > 30 µM
– | – | – | – | C#C[C@]1(O)CC[C@H]2[C@@H]3CCC4=CC(=O)CC[C@@H]4[C@H]3CC[C@@]21CC [LEVONORGESTREL] | 8.65 µM | > 30 µM | – | > 30 µM | > 30 µM
– | – | – | – | OC[C@@H](O)[C@@H](O)[C@H](O)[C@H](O)CO [MANNITOL] | > 30 µM | > 30 µM | > 30 µM | > 30 µM | > 30 µM
– | – | – | – | CN1CCCC(CN2c3ccccc3Sc3ccccc32)C1 (configuration not stated) [MEPAZINE] | > 30 µM | > 30 µM | > 30 µM | – | > 30 µM
– | – | – | – | Sc1ncnc2nc[nH]c12 [MERCAPTOPURINE ANHYDROUS] | > 30 µM | > 30 µM | > 30 µM | > 30 µM | > 30 µM
– | – | – | – | C[N+]1(C)[C@@H]2C[C@@H](OC(=O)[C@H](CO)c3ccccc3)C[C@H]1[C@@H]1O[C@@H]12 [METHSCOPOLAMINE] | > 30 µM | > 30 µM | > 30 µM | > 30 µM | > 30 µM
– | – | – | – | CC(=O)Oc1c(C)cc(OCC(O)CNC(C)C)c(C)c1C (configuration not stated) [METIPRANOLOL] | > 30 µM | > 30 µM | > 30 µM | > 30 µM | > 30 µM
– | – | – | – | CC(O)CO (configuration not stated) [PROPYLENE GLYCOL] | > 30 µM | > 30 µM | > 30 µM | > 30 µM | > 30 µM
– | – | – | – | CN(C)C(=O)Oc1ccc[n+](C)c1 [PYRIDOSTIGMINE] | > 30 µM | > 30 µM | > 30 µM | > 30 µM | > 30 µM
– | – | – | – | Cc1cc2c(cc1CC(=O)c1sccc1S(=O)(=O)Nc1onc(C)c1Cl)OCO2 [SITAXENTAN] | > 30 µM | 25 µM | > 30 µM | > 30 µM | > 30 µM
– | – | – | – | CC(C)OC(=O)[C@H](C)N[P@](=O)(OC[C@H]1O[C@@H](n2ccc(=O)[nH]c2=O)[C@](C)(F)[C@@H]1O)Oc1ccccc1 [SOFOSBUVIR] | > 30 µM | > 30 µM | > 30 µM | > 30 µM | > 30 µM
– | – | – | – | Cc1ccc(O)c2ncccc12 [TILIQUINOL] | > 30 µM | > 30 µM | > 30 µM | > 30 µM | > 30 µM
– | – | – | – | CC(=O)OC[C@H]1O[C@@H](n2ccc(=O)[nH]c2=O)[C@H](OC(C)=O)[C@@H]1OC(C)=O [URIDINE TRIACETATE] | > 30 µM | > 30 µM | > 30 µM | > 30 µM | > 30 µM
> 30 µM | > 30 µM | > 30 µM | > 30 µM | CCCS(=O)(=O)Nc1ccc(F)c(C(=O)c2c[nH]c3ncc(-c4ccc(Cl)cc4)cc23)c1F [VEMURAFENIB] | – | – | – | – | –
– | – | – | – | CCOC(=O)N[C@@H]1CC[C@@H]2[C@@H](C1)C[C@H]1C(=O)O[C@H](C)[C@H]1[C@H]2/C=C/c1ccc(-c2cccc(F)c2)cn1 [VORAPAXAR] | > 30 µM | > 30 µM | > 30 µM | > 30 µM | > 30 µM
> 30 µM | > 30 µM | > 30 µM | > 30 µM | O=C(CCCCCCC(=O)Nc1ccccc1)NO [VORINOSTAT] | – | – | – | – | –

SMILES | AC50 [6] | AC50 [7] | AC50 [8] | AC50 [9] | AC50 [1] | AC50 [2] | AC50 [3] | AC50 [4] | AC50 [5]
CC(=O)OCC(=O)[C@@]1(O)CC[C@H]2[C@@H]3CCC4=CC(=O)CC[C@]4(C)[C@H]3C(=O)C[C@@]21C [CORTISONE ACETATE] | > 30 µM | – | – | – | > 30 µM | – | – | – | –
